Test results published in patent publication US6353007B1, “Substituted 1-(4-aminophenyl)indoles and their use as anti-inflammatory agents” (Boehringer Ingelheim Pharmaceuticals, Inc., priority 2000, dated 2002).

System: IL-2 promoter/enhancer
Test: IL-2 promoter assay (luciferase reporter, J.1F/C6 Jurkat cells, ionomycin and PMA induction)
Format: cell-based
Settings: Homo sapiens; J.1F/C6 Jurkat cell line; induction with ionomycin and PMA; read-out: IC50, inhibition of luciferase activity
Excerpt: The IL-2 promoter assay measures transcriptional activation of a luciferase reporter gene which has been placed under control of the IL-2 promoter/enhancer. All the known regulatory features of the IL-2 gene are contained within a ˜300 bp sequence immediately upstream of the open reading frame. The region −328 to +35 relative to the transcription start site of the IL-2 gene is obtained by […] of human genomic DNA and is subcloned into the promoterless luciferase reporter vector pGL2-Basic (Promega). The resulting construct, pIL2P-luc, and a vector containing a neomycin resistance gene, pcDNA/Neo (Invitrogen), are linearized and stably transfected into Jurkat cells (a human T cell line) by electroporation.
For screening compounds, the cells are pelleted by centrifugation, washed once with PBS, resuspended in RPMI (phenol red-free) containing 5% FBS, and dispensed into 96-well, white microtiter plates (Packard) at 50,000 cells/well. The cells are pre-incubated with compounds (1 μg/ml) for 15 min prior to addition of ionomycin (1 μg/ml) and PMA (10 ng/ml) in a final volume of 100 μl. Following a 5 hr incubation at 37° C. in a humidified incubator, 100 μl of Luc-Lite lysis buffer/luciferase assay buffer (Promega) is added and luminescence measured using a Packard TopCount scintillation counter/luminometer.

IC50: 300 pM
SMILES: C=CC[C@@H]1/C=C(\C)C[C@H](C)C[C@H](OC)[C@H]2O[C@@](O)(C(=O)C(=O)N3CCCC[C@H]3C(=O)O[C@H](/C(C)=C/[C@@H]3CC[C@@H](O)[C@H](OC)C3)[C@H](C)[C@@H](O)CC1=O)[C@H](C)C[C@@H]2OC [FK506]
